Consider eight compounds from patent publication US8802138B2, “Methods and compositions for improved deliver, expression or activity of RNA interference agents” (priority 2009, dated 2014).

Entries after “also recorded” stand apart in the source; their conditions may differ.

Data set [1] concerns Hs766T, MCF7 and PC3 cells. Briefly: siGLO release after pretreatment with enabler agent, confocal fluorescence microscopy. Type of data set: cell-based, human. The note with it: agent 4 hours, then liposomal siGLO (DC-RNAi) 6 hours. How it is done:
(§1) The effectiveness of RIDES in enhancing the intracellular bioavailability of RNAi (i.e., promoting the delivery of RNAi to the cytosol and the release of RNAi from liposomes, endosomes or lysosomes) was studied by monitoring the intracellular trafficking and locations of lipid vectors and RNAi using confocal fluorescence microscopy. […] For monitoring the location of liposomes, rodamine-labeled lipids (red fluorescence) was added to the liposome during liposome preparation. Internalization of siGLO-containing liposomes into the cytosol of a cell yields punctuated red and green fluorescence signals.
Three studies were conducted using siGLO as the RNAi. The lipid vector was the DC liposomes. The study was performed in one or more of three human tumor cell lines, i.e., pancreatic Hs766T, breast cancer MCF7, and prostate cancer PC3.
The first study evaluated the effects of pretreatment with enabler agents. […] Additional cytotoxic agents not acting through tubulin interaction or topoisomerase inhibition, i.e., cisplatin and 5-fluorouracil, were included as side-by-side comparisons. Cells were treated with one of these agents for 4 hours, followed by incubation with liposomal siGLO for 6 hours. […] After pretreatment with enabler agent, cells were washed with cold FBS-free medium for 3 times, fixed with formalin, stained with the nucleus dye DRAQ5, and examined using confocal fluorescence microscopy. […] Because only the free siGLO (not embedded in liposomes) can enter the nucleus, the nuclear accumulation of siGLO indicates the release of RNAi from the liposomes, endosomes, or lysosomes.

Data set [2] has as its system prostate cancer PC3 cells. Briefly: siGLO release with concurrent enabler treatment, confocal microscopy. Type of data set: cell-based, human. The note with it: agent concurrent with the siGLO treatment. The procedure: as §1
The study was performed in prostate cancer PC3 cells.

The test system of the next data set is pancreatic HS766T. The data set is described as follows: Paclitaxel cytotoxicity, MTT assay. The class given is cell-based, human. The procedure: (§2) In vivo antitumor activity was measured in tumor-bearing animals. In vitro antitumor activity was measured in cultured cells using the microtetrazolium assay (MTT). This assay measures the ability of cells to reduce the MTT dye, and is generally used as a measurement of the total cell number.
(§3) This was evaluated in porcine arterial smooth muscle cells; the duration of drug treatment was 36 hours. […] Cytotoxicity was measured using the using the MTT assay.
A general note: Tetrazolium assays rely on reduction of a dye to a coloured formazan, in cell work by metabolically active cells.

A further data set deals with prostate PC3. Briefly: Paclitaxel cytotoxicity, MTT assay. The class given is cell-based. The note with it: Homo sapiens, read-out: 50% inhibition of IC50 (nM); PC3, 48 hours.
Data set [3] has as its system HS766T cells. The data set is described as follows: Concentration-dependence of paclitaxel effect on siGLO transfection. Type of data set: cell-based, human. The conditions noted are these: 10 and 50 nM for 4 hours. How it is done: as §1
The subject of a further data set is breast MCF7 cells. The data set is described as follows: Paclitaxel cytotoxicity, MTT assay. The class given is cell-based, human.
Data set [4] relates to HS766T cells. The data set is described as follows: Cytotoxicity of 4 hour paclitaxel treatment, MTT assay. The class given is cell-based, human. The note with it: 10 nM for 4 hours. The procedure: as §2
The subject of data set [5] is porcine arterial smooth muscle cells. The data set is described as follows: Paclitaxel cytotoxicity, MTT assay, normal cells. The class given is cell-based. The procedure: as §2, §3
The mark [6] stands for this setting: concentration time product producing 50% cytotoxicity.

For `O=c1[nH]cc(F)c(=O)[nH]1` [5-fluorouracil], the “nuclear accumulation of siGLO (release of RNAi from liposomes, endosomes or lysosomes)” value in data set [1] is given as “did not change the punctated pattern of siGLO localization; also recorded: ineffective”.

On to `N.N.[Cl][Pt][Cl]` [cisplatin], for which the “nuclear accumulation of siGLO” value in data set [2] was “ineffective”. For the same compound, the “nuclear accumulation of siGLO (release of RNAi from liposomes, endosomes or lysosomes)” value in data set [1] is recorded as “did not change the punctated pattern of siGLO localization; also recorded: ineffective”.

`COc1cc2c(c(OC)c1OC)-c1ccc(OC)c(=O)cc1[C@@H](NC(C)=O)CC2` [colchicine]: the “nuclear accumulation of siGLO (release of RNAi from liposomes, endosomes or lysosomes)” value in data set [1] is “induced nuclear accumulation of green fluorescence signals”.

Consider `CC(=O)O[C@@]12CO[C@@H]1C[C@H](O)[C@@]1(C)C(=O)[C@H](O)C3=C(C)[C@@H](OC(=O)[C@H](O)[C@@H](NC(=O)OC(C)(C)C)c4ccccc4)C[C@@](O)([C@@H](OC(=O)c4ccccc4)[C@H]21)C3(C)C` [docetaxel], for which the “nuclear accumulation of siGLO (release of RNAi from liposomes, endosomes or lysosomes)” value in data set [1] is “induced nuclear accumulation of green fluorescence signals”.

On to `COc1cccc2c1C(=O)c1c(O)c3c(c(O)c1C2=O)C[C@@](O)(C(=O)CO)C[C@@H]3O[C@H]1C[C@H](N)[C@H](O)[C@H](C)O1` [doxorubicin], for which the “nuclear accumulation of siGLO (release of RNAi from liposomes, endosomes or lysosomes)” value in data set [1] was “induced nuclear accumulation of green fluorescence signals”.

As for `COC(=O)Nc1nc2ccc(C(=O)c3cccs3)cc2[nH]1` [nocodazole], in data set [2], the “nuclear accumulation of siGLO” value was “extensive nuclear accumulation of siGLO”. For the same compound, the “nuclear accumulation of siGLO (release of RNAi from liposomes, endosomes or lysosomes)” value in data set [1] is recorded as “induced nuclear accumulation of green fluorescence signals”.

As usually defined, the IC50 is the concentration that inhibits the measured activity by half. On to `CC(=O)O[C@H]1C(=O)[C@@]2(C)[C@H]([C@H](OC(=O)c3ccccc3)[C@]3(O)C[C@H](OC(=O)[C@H](O)[C@@H](NC(=O)c4ccccc4)c4ccccc4)C(C)=C1C3(C)C)[C@]1(OC(C)=O)CO[C@@H]1C[C@@H]2O` [paclitaxel], for which the IC50 in the data set on pancreatic HS766T (Homo sapiens, read-out: 50% inhibition of IC50 (nM), 48 hours) was determined as 12.7 nM; with prostate PC3, 15.5 nM; with breast MCF7 cells (Homo sapiens, read-out: 50% inhibition of IC50 (nM), MCF7, 48 hours), 5.2 nM; in data set [5] (Sus scrofa, read-out: 50% inhibition of IC50 (nM), 36 hours), 113 nM. The “CxT (nMxhr)” value in the data set on pancreatic HS766T (setting [6]) was 610 nMxhr; with breast MCF7 cells (concentration time product producing 50% cytotoxicity, MCF7), 250 nMxhr; in data set [5] (setting [6]), 4068 nMxhr. Besides, the “nuclear accumulation of siGLO” value in data set [2] is “extensive nuclear accumulation of siGLO”. In addition, in the data set on HS766T cells [3], the “appearance of siGLO in the nucleus” value is on record as “enhanced the appearance of siGLO in the nucleus at both concentrations; also recorded: effective”. The cytotoxicity entry with HS766T cells [4] is on record as “no apparent toxicity”. For the same compound, in data set [1], the “nuclear accumulation of siGLO (release of RNAi from liposomes, endosomes or lysosomes)” value was “induced nuclear accumulation of green fluorescence signals”.

Consider `CC[C@]1(O)C[C@H]2CN(CCc3c([nH]c4ccccc34)[C@@](C(=O)OC)(c3cc4c(cc3OC)N(C=O)[C@H]3[C@@](O)(C(=O)OC)[C@H](OC(C)=O)[C@]5(CC)C=CCN6CC[C@]43[C@@H]65)C2)C1` [vincristine], for which the “nuclear accumulation of siGLO (release of RNAi from liposomes, endosomes or lysosomes)” value in data set [1] is on record as “induced nuclear accumulation of green fluorescence signals”.
